# Data as given in the supplement of paper PMC10307832.
# Assays:
# Experiment in all cases: relative viability (nuclei count vs DMSO), 5 days (fraction); higher = more cells survive
# HCC-15 = test system: HCC-15
# How it was run: (§1)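 Lung cancer cell lines in 1536-well plates were dosed by pin tool the day after seeding, either with one drug alone or with a fixed anchor-drug dose plus five library-drug doses (not always all listed) in √10 steps. After 5 days, cells were fixed and their nuclei stained in one step (final 0.05% Triton X-100, 1% formaldehyde, 1 ug/ml Hoechst), then counted on 4× images. Relative viability is the nuclei count in treated wells divided by that in vehicle wells. Values are medians of duplicate plates.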
# LXF-289 = test system: LXF-289
# How it was run: as §1
# LC-2-ad = test system: LC-2-ad
# How it was run: as §1
# NCI-H2126 = test system: NCI-H2126
# How it was run: as §1
# HCC-78 = test system: HCC-78
# How it was run: as §1
# NCI-H358 = test system: NCI-H358
# How it was run: as §1
# RERF-LC-KJ = test system: RERF-LC-KJ
# How it was run: as §1
# A-427 = test system: A-427
# How it was run: as §1
# NCI-H1734 = test system: NCI-H1734
# How it was run: as §1
# PC-3 [JPC-3] = test system: PC-3 [JPC-3]
# How it was run: as §1
# SK-LU-1 = test system: SK-LU-1
# How it was run: as §1
# HOP-62 = test system: HOP-62
# How it was run: as §1
# NCI-H2342 = test system: NCI-H2342
# How it was run: as §1
# NCI-H647 = test system: NCI-H647
# How it was run: as §1
# NCI-H1915 = test system: NCI-H1915
# How it was run: as §1
# NCI-H2228 = test system: NCI-H2228
# How it was run: as §1
# NCI-H1755 = test system: NCI-H1755
# How it was run: as §1
# NCI-H2347 = test system: NCI-H2347
# How it was run: as §1
# NCI-H1975 = test system: NCI-H1975
# How it was run: as §1
# SW 1573 = test system: SW 1573
# How it was run: as §1
compound,measurement,setting,value
O=c1cc(-c2cccc3c2Sc2ccccc2S3)oc(N2CCOCC2)c1 + COc1cc2c(Oc3ccc(NC(=O)C4(C(=O)Nc5ccc(F)cc5)CC4)cc3F)ccnc2cc1OCCCN1CCOCC1 [Foretinib] (partner 0.25 µM),relative viability,HCC-15; first compound 0.08 µM,1.01
same,relative viability,HCC-15; first compound 0.253 µM,1.14
same,relative viability,HCC-15; first compound 0.8 µM,1
same,relative viability,HCC-15; first compound 2.53 µM,1.08
same,relative viability,HCC-15; first compound 8 µM,1.11
same,relative viability,LXF-289; first compound 0.08 µM,0.935
same,relative viability,LXF-289; first compound 0.253 µM,1.12
same,relative viability,LXF-289; first compound 0.8 µM,0.974
same,relative viability,LXF-289; first compound 2.53 µM,1.02
same,relative viability,LXF-289; first compound 8 µM,1.1
same,relative viability,LC-2-ad; first compound 0.08 µM,0.888
same,relative viability,LC-2-ad; first compound 0.253 µM,0.97
same,relative viability,LC-2-ad; first compound 0.8 µM,0.94
same,relative viability,LC-2-ad; first compound 2.53 µM,0.875
same,relative viability,LC-2-ad; first compound 8 µM,0.873
same,relative viability,NCI-H2126; first compound 0.08 µM,1.22
same,relative viability,NCI-H2126; first compound 0.253 µM,1.39
same,relative viability,NCI-H2126; first compound 0.8 µM,1.02
same,relative viability,NCI-H2126; first compound 2.53 µM,1.03
same,relative viability,NCI-H2126; first compound 8 µM,0.994
same,relative viability,HCC-78; first compound 0.08 µM,0.515
same,relative viability,HCC-78; first compound 0.253 µM,0.561
same,relative viability,HCC-78; first compound 0.8 µM,0.519
same,relative viability,HCC-78; first compound 2.53 µM,0.514
same,relative viability,HCC-78; first compound 8 µM,0.498
same,relative viability,NCI-H358; first compound 0.08 µM,0.622
same,relative viability,NCI-H358; first compound 0.253 µM,0.753
same,relative viability,NCI-H358; first compound 0.8 µM,0.635
same,relative viability,NCI-H358; first compound 2.53 µM,0.825
same,relative viability,NCI-H358; first compound 8 µM,0.797
same,relative viability,RERF-LC-KJ; first compound 0.08 µM,0.836
same,relative viability,RERF-LC-KJ; first compound 0.253 µM,0.952
same,relative viability,RERF-LC-KJ; first compound 0.8 µM,0.745
same,relative viability,RERF-LC-KJ; first compound 2.53 µM,0.995
same,relative viability,RERF-LC-KJ; first compound 8 µM,0.792
same,relative viability,A-427; first compound 0.08 µM,1.05
same,relative viability,A-427; first compound 0.253 µM,1
same,relative viability,A-427; first compound 0.8 µM,1.06
same,relative viability,A-427; first compound 8 µM,1.11
same,relative viability,NCI-H1734; first compound 0.08 µM,0.788
same,relative viability,NCI-H1734; first compound 0.253 µM,1.04
same,relative viability,NCI-H1734; first compound 0.8 µM,0.99
same,relative viability,NCI-H1734; first compound 8 µM,0.94
same,relative viability,PC-3 [JPC-3]; first compound 0.08 µM,1.06
same,relative viability,PC-3 [JPC-3]; first compound 0.253 µM,1.08
same,relative viability,PC-3 [JPC-3]; first compound 0.8 µM,1.16
same,relative viability,PC-3 [JPC-3]; first compound 2.53 µM,1.01
same,relative viability,PC-3 [JPC-3]; first compound 8 µM,1.2
same,relative viability,SK-LU-1; first compound 0.08 µM,0.787
same,relative viability,SK-LU-1; first compound 0.253 µM,1.05
same,relative viability,SK-LU-1; first compound 0.8 µM,0.906
same,relative viability,SK-LU-1; first compound 2.53 µM,0.842
same,relative viability,SK-LU-1; first compound 8 µM,0.831
same,relative viability,HOP-62; first compound 0.08 µM,1.23
same,relative viability,HOP-62; first compound 0.253 µM,1.27
same,relative viability,HOP-62; first compound 0.8 µM,1.25
same,relative viability,HOP-62; first compound 2.53 µM,1.02
same,relative viability,HOP-62; first compound 8 µM,1.14
same,relative viability,NCI-H2342; first compound 0.08 µM,0.996
same,relative viability,NCI-H2342; first compound 0.253 µM,1.04
same,relative viability,NCI-H2342; first compound 0.8 µM,0.916
same,relative viability,NCI-H2342; first compound 2.53 µM,0.917
same,relative viability,NCI-H2342; first compound 8 µM,1.11
same,relative viability,NCI-H647; first compound 0.08 µM,1.15
same,relative viability,NCI-H647; first compound 0.253 µM,1.35
same,relative viability,NCI-H647; first compound 0.8 µM,1.25
same,relative viability,NCI-H647; first compound 2.53 µM,1.21
same,relative viability,NCI-H647; first compound 8 µM,1.29
same,relative viability,NCI-H1915; first compound 0.08 µM,1.21
same,relative viability,NCI-H1915; first compound 0.253 µM,1.2
same,relative viability,NCI-H1915; first compound 0.8 µM,1.08
same,relative viability,NCI-H1915; first compound 2.53 µM,1.06
same,relative viability,NCI-H1915; first compound 8 µM,1.11
same,relative viability,NCI-H2228; first compound 0.08 µM,0.753
same,relative viability,NCI-H2228; first compound 0.253 µM,0.907
same,relative viability,NCI-H2228; first compound 0.8 µM,0.966
same,relative viability,NCI-H2228; first compound 2.53 µM,0.813
same,relative viability,NCI-H2228; first compound 8 µM,1.11
same,relative viability,NCI-H1755; first compound 0.08 µM,0.861
same,relative viability,NCI-H1755; first compound 0.253 µM,0.976
same,relative viability,NCI-H1755; first compound 0.8 µM,0.913
same,relative viability,NCI-H1755; first compound 2.53 µM,0.899
same,relative viability,NCI-H1755; first compound 8 µM,0.943
same,relative viability,NCI-H2347; first compound 0.08 µM,0.903
same,relative viability,NCI-H2347; first compound 0.253 µM,0.841
same,relative viability,NCI-H2347; first compound 0.8 µM,0.682
same,relative viability,NCI-H2347; first compound 2.53 µM,0.679
same,relative viability,NCI-H2347; first compound 8 µM,0.892
same,relative viability,NCI-H1975; first compound 0.08 µM,0.966
same,relative viability,NCI-H1975; first compound 0.253 µM,0.924
same,relative viability,NCI-H1975; first compound 0.8 µM,0.931
same,relative viability,NCI-H1975; first compound 2.53 µM,0.946
same,relative viability,NCI-H1975; first compound 8 µM,1.02
same,relative viability,SW 1573; first compound 0.08 µM,0.8
same,relative viability,SW 1573; first compound 0.253 µM,0.916
same,relative viability,SW 1573; first compound 0.8 µM,0.783
same,relative viability,SW 1573; first compound 2.53 µM,0.989
same,relative viability,SW 1573; first compound 8 µM,1
